Test [1] deals with H727 lung cancer cell lines (G12V K-Ras mutation). Description: Inhibition of cancer cell proliferation (CellTiter-Glo). Format: cell-based. To be noted: Homo sapiens, NCI-H727, 72 h, read-out: Cell proliferation activity (H727 cancer cell line proliferation IC50). In a few lines:
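H727 cells (K-Ras G12V), 1000/well, plated overnight then exposed to a compound dose range for 3 days at 37 °C. Proliferation by CellTiter-Glo, normalized to DMSO; IC50 from four-parameter variable-slope fit.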
For orientation: Cellular ATP, detected with luciferase, serves as a proxy for viable cell number.

Test [2] deals with T1, Son of Sevenless (SOS) (Homo sapiens, UniProt Q07889).
T1 sequence (Q07889 564-1049 limits assumed): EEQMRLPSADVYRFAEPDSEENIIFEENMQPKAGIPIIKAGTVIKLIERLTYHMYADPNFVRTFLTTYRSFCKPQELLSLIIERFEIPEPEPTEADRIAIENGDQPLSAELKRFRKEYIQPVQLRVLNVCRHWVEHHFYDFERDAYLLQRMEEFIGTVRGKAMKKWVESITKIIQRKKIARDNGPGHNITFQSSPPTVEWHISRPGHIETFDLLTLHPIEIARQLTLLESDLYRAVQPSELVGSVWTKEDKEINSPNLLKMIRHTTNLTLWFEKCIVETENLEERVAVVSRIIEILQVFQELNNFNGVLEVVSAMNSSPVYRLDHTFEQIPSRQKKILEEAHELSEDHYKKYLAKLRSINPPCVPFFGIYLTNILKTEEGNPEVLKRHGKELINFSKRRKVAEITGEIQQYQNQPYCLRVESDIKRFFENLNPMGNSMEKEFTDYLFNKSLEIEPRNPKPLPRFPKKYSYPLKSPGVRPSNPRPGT
Put plainly: Binding to SOS, fluorescence polarization anisotropy (FPA) probe displacement. To be noted: displacement of FITC-conjugated probe (Example 285), affinity calculated from IC50. In a few lines: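 A FITC-conjugated probe compound was incubated with SOS in buffer, and its displacement was tracked as a change in fluorescence anisotropy across a test-compound dose range. IC50 came from a four-parameter variable-slope fit, and binding affinity was calculated from it.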

Test [3] addresses Ras GEF SOS (Son of Sevenless) (Homo sapiens, UniProt Q07889). Put plainly: SOS-mediated nucleotide exchange on Ras (BODIPY-GDP fluorescence). It is filed as biochemical. The following applies: SOS-mediated exchange of BODIPY-GDP for GTP on Ras. In a few lines:
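Ras loaded with BODIPY-GDP was mixed in buffer with test compound, then GTP and SOS. Fluorescence change from labeled GDP/GTP exchange was followed over time, and rates came from single-exponential fits. EC50 came from a four-parameter fit of mean rate against compound concentration.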

Where a name gives a salt, the structure may show the parent alone. Read-outs that look alike come from different tables or passages of the source.

Chain of Ras GEF SOS (Son of Sevenless) (P01112 1-166 partner limits assumed, one chain of several): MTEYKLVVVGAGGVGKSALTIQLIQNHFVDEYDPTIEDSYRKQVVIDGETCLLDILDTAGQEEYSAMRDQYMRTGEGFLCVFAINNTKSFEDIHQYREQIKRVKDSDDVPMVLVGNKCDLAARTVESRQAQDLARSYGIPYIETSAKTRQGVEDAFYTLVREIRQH

A word on the Ki: it is the equilibrium dissociation constant of an inhibitor or competing ligand from its target. One may read the EC50 as the midpoint of the concentration-response curve. Higher therefore signals a need for much substance. Regarding `Cc1cc(CN2CCOCC2)c2nc(N3CCNCC3)n(Cc3cc(C)c(F)c(C)c3)c2c1` [Example 127, 4-((1-(4-fluoro-3,5-dimethylbenzyl)-6-methyl-2-(piperazin-1-yl)-1H-benzo[d]imidazol-4-yl)methyl)morpholine trifluoroacetate], in test [1], the IC50 lay within 1 to 5 µM. For the same compound, the Ki in test [2] is 1 to 5 µM. The 50% effective concentration (EC50) in test [3] lay in the range of 1 to 5 µM.

With `Cc1cc(CN2CCCC2)c2nc(N3CCNCC3)n(Cc3cc(C)c(F)c(C)c3)c2c1` [Example 124, 1-(4-fluoro-3,5-dimethylbenzyl)-6-methyl-2-(piperazin-1-yl)-4-(pyrrolidin-1-ylmethyl)-1H-benzo[d]imidazole trifluoroacetate], the IC50 in test [1] is 1 to 5 µM. The Ki in test [2] is 1 to 5 µM. The compound further returned an EC50 in test [3] of under 1 µM.

In the case of `Cc1cc2nc(N3CCNCC3)n(Cc3ccc(F)c(C4CC4)c3)c2cc1C` [Example 51, 1-(3-cyclopropyl-4-fluorobenzyl)-5,6-dimethyl-2-(piperazin-1-yl)-1H-benzo[d]imidazole trifluoroacetate], the IC50 in test [1] fell in the range of 1 to 5 µM. In addition, in test [2], the Ki was over 5 µM. The EC50 in test [3] lay in the range of 5 to 30 µM.

As for `Cc1cnc2nc(N3CCC(N)C3)n(Cc3ccc(F)c(C)c3)c2c1` (stereo not drawn) [Example 241, 1-(1-(4-fluoro-3-methylbenzyl)-6-methyl-1H-imidazo[4,5-b]pyridin-2-yl)pyrrolidin-3-amine], the IC50 in test [1] (H727 cells, 3 days treatment, CellTiter-Glo) is over 20 µM. Besides, in test [2], the Ki was over 5 µM. Also, the 50% effective concentration (EC50) in test [3] was in the range of 1 to 5 µM.

Regarding `Cc1cc(Cn2c(N3CCNCC3)nc3c(CN4CCCC4)cc(Cl)cc32)cc(C)c1F` [Example 130, 6-chloro-1-(4-fluoro-3,5-dimethylbenzyl)-2-(piperazin-1-yl)-4-(pyrrolidin-1-ylmethyl)-1H-benzo[d]imidazole trifluoroacetate], the IC50 in test [1] was in the range of 1 to 5 µM. The Ki in test [2] is under 0.5 µM. Further, the EC50 in test [3] was under 1 µM.
